{"source": "patent US20120135089A1", "about": "“E3 LIGASE INHIBITORS” (priority 2009, published 2012)", "key": {"[1]": {"system": "Mdm2, p21, puma, and bax transcripts", "experiment": "qRT-PCR of p53 target genes in RKO cells", "format": "cell-based, human", "settings": "5 μg/ml MEL23, 24 or 48 hours", "protocol": "(§1) RKO cells were treated with 5 μg/ml (14 μM) MEL23 for 24 or 48 hours. Quantitative real-time PCR was used to analyze the mRNA levels of the Mdm2, p21, puma, and bax transcripts. All values are normalized to no treatment, DMSO control. The figure is representative of three independent experiments and standard error bars represent intra-experimental error.\nas §1, with “48 hours, 0.1 μg/ml (0.2 μM) doxorubicin for 48 hours, or 10 μM ALLN for 24” for “48”, “analyze” for “analyze the”, “were” for “are”, “treatment (NT),” for “treatment,”\nRNA was harvested using RNeasy Mini kit (Qiagen, Cat. No. 74104) and first-strand cDNA synthesis was performed with the TaqMan Reverse Transcription Reagents for qRT-PCR (Applied Biosystems Inc., Foster City, Calif., Cat. No. N8080234) according to the manufacturers' protocol. Samples were analyzed by quantitative real-time PCR on an ABI 7300 real-time PCR instrument (Applied Biosystems) using the ΔΔCT method. PCR reaction mixtures contained 75 ng of cDNA, 1×SYBR Green Mix (Applied Biosystems, Cat. No. 4367659), and 100 nM primers. Values were normalized to those of the hprt1 housekeeping gene (47)."}, "[2]": {"target": "T1, Flag-Mdm2-HA-MdmX complex (Homo sapiens, UniProt O15151+Q00987)", "T1 construct": "unlike the full-length complex, which was produced through co-expression of Mdm2 and MdmX in SF9 cells; made in house; host or cells: Sf9 insect cells, co-infection; purified on M2-agarose, then HA-agarose", "T1 sequence (Q00987 whole entry)": "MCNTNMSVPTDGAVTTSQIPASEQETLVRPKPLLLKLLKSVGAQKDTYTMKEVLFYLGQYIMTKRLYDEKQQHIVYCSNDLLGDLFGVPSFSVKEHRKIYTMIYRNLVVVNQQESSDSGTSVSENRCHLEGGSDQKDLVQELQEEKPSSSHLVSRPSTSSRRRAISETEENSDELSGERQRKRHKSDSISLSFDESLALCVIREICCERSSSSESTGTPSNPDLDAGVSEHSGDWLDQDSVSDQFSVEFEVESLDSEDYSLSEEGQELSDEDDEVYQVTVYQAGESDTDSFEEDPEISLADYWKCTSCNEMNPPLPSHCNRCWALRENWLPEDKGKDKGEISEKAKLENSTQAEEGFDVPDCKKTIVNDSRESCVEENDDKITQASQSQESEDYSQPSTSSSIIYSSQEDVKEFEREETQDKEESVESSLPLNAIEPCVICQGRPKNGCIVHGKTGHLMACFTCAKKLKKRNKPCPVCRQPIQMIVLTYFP", "T1 sequence (O15151 whole entry)": "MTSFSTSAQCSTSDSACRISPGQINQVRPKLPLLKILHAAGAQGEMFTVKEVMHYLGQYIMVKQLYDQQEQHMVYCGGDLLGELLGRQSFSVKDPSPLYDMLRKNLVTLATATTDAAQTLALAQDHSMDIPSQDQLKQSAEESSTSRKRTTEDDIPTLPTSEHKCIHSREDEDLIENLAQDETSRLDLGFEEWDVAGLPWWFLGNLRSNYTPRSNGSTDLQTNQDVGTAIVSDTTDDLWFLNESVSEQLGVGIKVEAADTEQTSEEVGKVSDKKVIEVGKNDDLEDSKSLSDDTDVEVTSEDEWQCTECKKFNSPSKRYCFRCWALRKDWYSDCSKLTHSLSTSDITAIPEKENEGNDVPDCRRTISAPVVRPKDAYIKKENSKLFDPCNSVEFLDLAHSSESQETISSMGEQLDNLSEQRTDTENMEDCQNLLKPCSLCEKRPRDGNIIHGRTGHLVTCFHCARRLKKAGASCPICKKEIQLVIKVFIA", "experiment": "in vitro ubiquitination assay, Flag-Mdm2/HA-MdmX complex", "format": "biochemical", "protocol": "These assays were performed with 100 ng of full-length Flag-Mdm2 or 200 ng of Flag-Mdm2/HA-MdmX complexes (100 ng of each protein as each are present in a 1:1 ratio, when purified), ^32P-labeled ubiquitin, UbCH5c, and E1. Following a 30-minute incubation at 37° C., reactions were terminated and resolved on a SDS-PAGE gel followed by autoradiography. PC indicates positive control, and NC indicates negative control with UbCH5C eliminated from the reaction. The gels were quantified by phosphoimaging using ImageQuant software (GE Healthcare Bio-Sciences Corp., Piscataway, N.J.). […]\nUbiquitin reactions contain 50 ng E1, 1 μg PK-ubiquitin, 50 ng His-UbCH5C, and 100 ng Flag-Mdm2. […] The products were resolved by SDS-PAGE and analyzed by Western blotting with anti-p53, anti-Mdm2 SMP14, 2A10, 3G5 mix, or anti-MdmX. […] The graph represents the quantification of the Mdm2-ubiquitin species, normalized to the positive control. […]\nFull-length Mdm2 in vitro ubiquitination reactions were performed in 15 μl reaction mixtures containing 50 mM TrisHC1 pH 7.5, 5 mM MgCl2, 2 mM NaF, 2 mM ATP, 0.6 mM DTT, 50 ng E1 (Boston Biochem, Cat. No. E-305), 1 μg PK-ubiquitin, 50 ng His-UbCH5C, and 100 ng Flag-Mdm2. […] The products were resolved by SDS-PAGE and analyzed by Western blot with anti-p53, anti-Mdm2 SMP14, 2A10, 3G5 mix, or anti-MdmX antibodies. […]"}, "[3]": {"system": "U2OS (p53 wild-type) and H1299 (p53 null) cells", "experiment": "combination viability assay, excess over Bliss independence", "format": "cell-based, human", "protocol": "All values were normalized to no treatment. […] Percent cell death was determined by normalization to a no treatment control. Bliss Independence was determined by the formula C=A+B−A*B, where A is treatment with one compound alone and B is treatment with the second compound alone.\nCells were then treated with the indicated concentration of compound. […] Fluorescence intensity was determined using the Victor3 Plate Reader (PerkinElmer). Median percent survival or growth inhibition was calculated and normalized to a no treatment control.\nThe excess over the predicted Bliss independence was determined by subtracting the predicted Bliss effect for each treatment from the experimentally determined growth inhibition for the same treatment."}}, "note": "Entries after “also recorded” stand apart in the source; their conditions may differ.", "data": [{"smiles": "CCCCn1c(=O)[nH]c(O)c(C2NCCc3c2[nH]c2ccccc32)c1=O", "note": "(stereo not drawn) [MEL23]", "values": [{"measurement": "mRNA levels of p53 target genes Mdm2, p21, Bax, puma", "setting": "[1]", "result": "increased within 48 hours of treatment; also recorded: increased the transcription of p53 target genes to intermediate levels compared to doxorubicin and ALLN"}, {"measurement": "ligase activity of the Mdm2-MdmX complex in vitro", "setting": "[2]", "result": "significantly decreased the overall ligase activity; also recorded: inhibited"}, {"measurement": "activity of the Mdm2-MdmX complex toward p53 in vitro", "setting": "[2]; Western blot", "result": "inhibited the activity of the Mdm2-MdmX complex toward p53"}, {"measurement": "synergy of MEL23 with Nutlin-3 on viability", "setting": "[3]; 48 hours, excess over Bliss independence", "result": "Synergy between MEL23 and Nutlin-3 occurred, but to a lesser extent than the combination of MEL23 and DNA-damaging agents"}, {"measurement": "synergy with DNA damaging agents in p53-null cells", "setting": "[3]; H1299 (p53-null)", "result": "synergized with DNA damaging agents; also recorded: cooperated with DNA-damaging agents in p53-null cells to a small, yet reproducible, extent"}, {"measurement": "synergy with camptothecin or etoposide on viability", "setting": "[3]; U2OS and H1299, 48 hours, excess over Bliss independence", "result": "synergistic effect on viability"}]}]}
